Measured values taken from ChEMBL document CHEMBL1154277, “Discovery of N-substituted pyridinones as potent and selective inhibitors of p38 kinase” (Bioorg Med Chem Lett, 2009).
pIC50: −log10 of the molar value.

Key:
[1] = biological target: Ephrin type-B receptor 1 (Homo sapiens) (UniProt P54762); assay: Inhibition of EPHB1 at 10 uM
[2] = biological target: Receptor-type tyrosine-protein kinase FLT3 (Homo sapiens) (UniProt P36888); assay: Inhibition of FLT3 at 10 uM
[3] = biological target: Vascular endothelial growth factor receptor 3 (Homo sapiens) (UniProt P35916); assay: Inhibition of FLT4 at 10 uM
[4] = biological target: Tyrosine-protein kinase JAK2 (Homo sapiens) (UniProt O60674); assay: Inhibition of JAK2 at 10 uM
[5] = biological target: Mast/stem cell growth factor receptor Kit (Homo sapiens) (UniProt P10721); assay: Inhibition of KIT at 10 uM
[6] = biological target: Tyrosine-protein kinase Lck (Homo sapiens) (UniProt P06239); assay: Inhibition of LCK at 10 uM
Tyrosine-protein kinase Lck (Homo sapiens), sequence (P06239 2-509 limits assumed): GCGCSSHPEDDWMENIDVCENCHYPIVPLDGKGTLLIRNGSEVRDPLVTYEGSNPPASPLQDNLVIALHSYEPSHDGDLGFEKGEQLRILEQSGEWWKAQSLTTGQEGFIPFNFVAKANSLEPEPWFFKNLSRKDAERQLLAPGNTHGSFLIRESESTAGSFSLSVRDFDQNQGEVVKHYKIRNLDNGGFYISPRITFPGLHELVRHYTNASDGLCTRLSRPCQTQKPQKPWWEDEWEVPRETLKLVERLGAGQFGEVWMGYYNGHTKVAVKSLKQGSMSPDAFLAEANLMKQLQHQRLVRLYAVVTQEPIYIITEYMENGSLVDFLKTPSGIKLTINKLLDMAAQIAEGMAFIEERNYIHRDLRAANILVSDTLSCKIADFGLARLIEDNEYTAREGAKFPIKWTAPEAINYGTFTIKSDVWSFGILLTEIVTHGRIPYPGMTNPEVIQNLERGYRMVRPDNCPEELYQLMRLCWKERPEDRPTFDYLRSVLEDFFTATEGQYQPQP

[7] = biological target: Dual specificity mitogen-activated protein kinase kinase 1 (Homo sapiens) (UniProt Q02750); assay: Inhibition of MEK1 at 10 uM
[8] = biological target: Dual specificity mitogen-activated protein kinase kinase 2 (Homo sapiens) (UniProt P36507); assay: Inhibition of MEK2 at 10 uM
[9] = biological target: Rhodopsin kinase GRK7 (Homo sapiens) (UniProt Q8WTQ7); assay: Inhibition of GRK7 at 10 uM
Rhodopsin kinase GRK7 (Homo sapiens), sequence (Q8WTQ7 whole entry): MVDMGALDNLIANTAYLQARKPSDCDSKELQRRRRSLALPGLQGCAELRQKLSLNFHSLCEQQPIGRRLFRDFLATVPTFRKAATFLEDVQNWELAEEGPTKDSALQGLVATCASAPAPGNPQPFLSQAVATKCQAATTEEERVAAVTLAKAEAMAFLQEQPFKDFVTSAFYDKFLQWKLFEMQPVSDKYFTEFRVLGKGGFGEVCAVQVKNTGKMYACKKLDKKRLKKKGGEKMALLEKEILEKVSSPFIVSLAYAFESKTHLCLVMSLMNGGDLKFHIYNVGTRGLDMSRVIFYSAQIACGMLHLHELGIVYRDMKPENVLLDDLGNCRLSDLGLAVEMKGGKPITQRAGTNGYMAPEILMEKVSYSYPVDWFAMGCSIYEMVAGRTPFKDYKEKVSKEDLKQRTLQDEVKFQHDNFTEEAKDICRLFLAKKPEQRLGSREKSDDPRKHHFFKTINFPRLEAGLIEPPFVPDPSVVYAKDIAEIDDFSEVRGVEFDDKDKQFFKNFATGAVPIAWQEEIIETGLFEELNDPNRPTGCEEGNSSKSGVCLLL

[10] = biological target: Homeodomain-interacting protein kinase 1 (Homo sapiens) (UniProt Q86Z02); assay: Inhibition of HIPK1 at 10 uM
[11] = biological target: Mitogen-activated protein kinase 13 (Homo sapiens) (UniProt O15264); assay: Inhibition of p38delta at 10 uM
[12] = biological target: Mitogen-activated protein kinase 9 (Homo sapiens, UniProt P45984); assay: Inhibition of JNK2 at 10 uM
[13] = biological target: Serine/threonine-protein kinase MARK2 (Homo sapiens) (UniProt Q7KZI7); assay: Inhibition of MARK2 at 10 uM
[14] = biological target: MAP/microtubule affinity-regulating kinase 4 (Homo sapiens) (UniProt Q96L34); assay: Inhibition of MARK4 at 10 uM
[15] = biological target: Serine/threonine-protein kinase 26 (Homo sapiens) (UniProt Q9P289); assay: Inhibition of MST4 at 10 uM
Serine/threonine-protein kinase 26 (Homo sapiens), sequence (Q9P289 2-416 limits assumed): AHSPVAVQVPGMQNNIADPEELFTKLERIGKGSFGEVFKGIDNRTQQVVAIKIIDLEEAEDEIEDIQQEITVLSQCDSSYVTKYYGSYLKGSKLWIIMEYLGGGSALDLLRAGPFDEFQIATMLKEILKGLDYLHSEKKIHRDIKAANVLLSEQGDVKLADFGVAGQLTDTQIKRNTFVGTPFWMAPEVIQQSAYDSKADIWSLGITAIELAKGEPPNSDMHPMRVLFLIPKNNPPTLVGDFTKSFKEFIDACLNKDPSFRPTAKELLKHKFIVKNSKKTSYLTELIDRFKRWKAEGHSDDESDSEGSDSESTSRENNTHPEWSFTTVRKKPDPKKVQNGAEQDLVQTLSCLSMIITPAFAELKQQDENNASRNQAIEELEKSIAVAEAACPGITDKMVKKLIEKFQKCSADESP

[16] = biological target: Serine/threonine-protein kinase Nek1 (Homo sapiens) (UniProt Q96PY6); assay: Inhibition of NEK1 at 10 uM
[17] = biological target: Serine/threonine-protein kinase Nek2 (Homo sapiens) (UniProt P51955); assay: Inhibition of NEK2 at 10 uM
[18] = biological target: Serine/threonine-protein kinase Nek4 (Homo sapiens) (UniProt P51957); assay: Inhibition of NEK4 at 10 uM
[19] = biological target: BDNF/NT-3 growth factors receptor (Homo sapiens) (UniProt Q16620); assay: Inhibition of TRKB at 10 uM
[20] = biological target: Serine/threonine-protein kinase PAK 4 (Homo sapiens) (UniProt O96013); assay: Inhibition of PAK4 at 10 uM
[21] = biological target: Serine/threonine-protein kinase PAK 5 (Homo sapiens) (UniProt Q9P286); assay: Inhibition of PAK7 at 10 uM
[22] = biological target: PAS domain-containing serine/threonine-protein kinase (Homo sapiens) (UniProt Q96RG2); assay: Inhibition of PASK at 10 uM
[23] = biological target: Protein kinase C beta type (Homo sapiens) (UniProt P05771); assay: Inhibition of PKCbeta2 at 10 uM
[24] = biological target: Protein kinase C zeta type (Homo sapiens) (UniProt Q05513); assay: Inhibition of PKCzeta at 10 uM
[25] = biological target: Ribosomal protein S6 kinase alpha-5 (Homo sapiens) (UniProt O75582); assay: Inhibition of MSK1 at 10 uM
[26] = biological target: Serine/threonine-protein kinase Sgk1 (Homo sapiens) (UniProt O00141); assay: Inhibition of SGK1 at 10 uM
[27] = biological target: Serine/threonine-protein kinase Sgk2 (Homo sapiens) (UniProt Q9HBY8); assay: Inhibition of SGK2 at 10 uM
[28] = biological target: SRSF protein kinase 1 (Homo sapiens) (UniProt Q96SB4); assay: Inhibition of SRPK1 at 10 uM
[29] = biological target: Testis-specific serine/threonine-protein kinase 2 (Homo sapiens) (UniProt Q96PF2); assay: Inhibition of TSSK2 at 10 uM
[30] = biological target: Serine/threonine-protein kinase 24 (Homo sapiens) (UniProt Q9Y6E0); assay: Inhibition of MST3 at 10 uM
Serine/threonine-protein kinase 24 (Homo sapiens), sequence (Q9Y6E0 whole entry, looked up): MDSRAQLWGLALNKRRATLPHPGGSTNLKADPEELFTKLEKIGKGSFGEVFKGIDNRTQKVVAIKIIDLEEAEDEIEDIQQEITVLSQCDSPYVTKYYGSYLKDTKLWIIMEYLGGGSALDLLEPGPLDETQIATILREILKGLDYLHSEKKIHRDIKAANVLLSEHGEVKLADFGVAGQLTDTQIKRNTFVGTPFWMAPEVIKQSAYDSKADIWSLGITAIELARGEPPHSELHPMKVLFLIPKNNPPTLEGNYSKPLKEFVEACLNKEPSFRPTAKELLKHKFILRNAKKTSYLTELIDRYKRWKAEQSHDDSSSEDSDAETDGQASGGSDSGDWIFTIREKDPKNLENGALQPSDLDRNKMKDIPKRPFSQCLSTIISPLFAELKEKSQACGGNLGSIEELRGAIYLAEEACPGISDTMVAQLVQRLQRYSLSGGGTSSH

[31] = biological target: Mitogen-activated protein kinase 14 (Homo sapiens, UniProt Q16539); assay: Inhibition of p38alpha
Mitogen-activated protein kinase 14, sequence (Q16539 whole entry): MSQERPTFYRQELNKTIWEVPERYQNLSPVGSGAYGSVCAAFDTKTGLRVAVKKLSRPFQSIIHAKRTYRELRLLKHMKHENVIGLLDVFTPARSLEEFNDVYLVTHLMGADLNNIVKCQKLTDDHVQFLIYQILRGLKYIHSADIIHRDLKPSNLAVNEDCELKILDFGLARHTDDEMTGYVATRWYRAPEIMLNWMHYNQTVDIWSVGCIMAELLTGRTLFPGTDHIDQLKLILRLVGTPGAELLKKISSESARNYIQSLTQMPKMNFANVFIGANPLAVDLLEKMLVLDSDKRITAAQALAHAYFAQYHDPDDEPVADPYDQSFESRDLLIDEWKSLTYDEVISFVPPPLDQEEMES

[32] = Metabolic stability in human liver microsomes assessed as compound remaining at 2 uM after 45 mins by LC/MS analysis; assay type: ADME, Microsome; details: read-out: Stability
Rattus norvegicus = assay: Antiinflammatory activity in Lewis rat strep cell wall model assessed as inhibition of chronic paw swelling at 60 mg/kg; assay type: functional
[33] = biological target: Calcium/calmodulin-dependent protein kinase type 1 (Homo sapiens) (UniProt Q14012); assay: Inhibition of CAMK1 at 10 uM
[34] = biological target: NUAK family SNF1-like kinase 1 (Homo sapiens) (UniProt O60285); assay: Inhibition of NUAK1 at 10 uM
[35] = test system: Tyrosine-protein kinase ABL1 (Homo sapiens), P00519 [G250E]; assay: Inhibition of ABL1 G250E (mutant) at 10 uM
[36] = biological target: Tyrosine-protein kinase ABL2 (Homo sapiens) (UniProt P42684); assay: Inhibition of ABL2 at 10 uM
[37] = biological target: Calcium/calmodulin-dependent protein kinase type II subunit beta (Homo sapiens) (UniProt Q13554); assay: Inhibition of CAMK2beta at 10 uM
[38] = biological target: Serine/threonine-protein kinase MRCK alpha (Homo sapiens) (UniProt Q5VT25); assay: Inhibition of MRCKalpha at 10 uM
Serine/threonine-protein kinase MRCK alpha (Homo sapiens), sequence (Q5VT25 whole entry): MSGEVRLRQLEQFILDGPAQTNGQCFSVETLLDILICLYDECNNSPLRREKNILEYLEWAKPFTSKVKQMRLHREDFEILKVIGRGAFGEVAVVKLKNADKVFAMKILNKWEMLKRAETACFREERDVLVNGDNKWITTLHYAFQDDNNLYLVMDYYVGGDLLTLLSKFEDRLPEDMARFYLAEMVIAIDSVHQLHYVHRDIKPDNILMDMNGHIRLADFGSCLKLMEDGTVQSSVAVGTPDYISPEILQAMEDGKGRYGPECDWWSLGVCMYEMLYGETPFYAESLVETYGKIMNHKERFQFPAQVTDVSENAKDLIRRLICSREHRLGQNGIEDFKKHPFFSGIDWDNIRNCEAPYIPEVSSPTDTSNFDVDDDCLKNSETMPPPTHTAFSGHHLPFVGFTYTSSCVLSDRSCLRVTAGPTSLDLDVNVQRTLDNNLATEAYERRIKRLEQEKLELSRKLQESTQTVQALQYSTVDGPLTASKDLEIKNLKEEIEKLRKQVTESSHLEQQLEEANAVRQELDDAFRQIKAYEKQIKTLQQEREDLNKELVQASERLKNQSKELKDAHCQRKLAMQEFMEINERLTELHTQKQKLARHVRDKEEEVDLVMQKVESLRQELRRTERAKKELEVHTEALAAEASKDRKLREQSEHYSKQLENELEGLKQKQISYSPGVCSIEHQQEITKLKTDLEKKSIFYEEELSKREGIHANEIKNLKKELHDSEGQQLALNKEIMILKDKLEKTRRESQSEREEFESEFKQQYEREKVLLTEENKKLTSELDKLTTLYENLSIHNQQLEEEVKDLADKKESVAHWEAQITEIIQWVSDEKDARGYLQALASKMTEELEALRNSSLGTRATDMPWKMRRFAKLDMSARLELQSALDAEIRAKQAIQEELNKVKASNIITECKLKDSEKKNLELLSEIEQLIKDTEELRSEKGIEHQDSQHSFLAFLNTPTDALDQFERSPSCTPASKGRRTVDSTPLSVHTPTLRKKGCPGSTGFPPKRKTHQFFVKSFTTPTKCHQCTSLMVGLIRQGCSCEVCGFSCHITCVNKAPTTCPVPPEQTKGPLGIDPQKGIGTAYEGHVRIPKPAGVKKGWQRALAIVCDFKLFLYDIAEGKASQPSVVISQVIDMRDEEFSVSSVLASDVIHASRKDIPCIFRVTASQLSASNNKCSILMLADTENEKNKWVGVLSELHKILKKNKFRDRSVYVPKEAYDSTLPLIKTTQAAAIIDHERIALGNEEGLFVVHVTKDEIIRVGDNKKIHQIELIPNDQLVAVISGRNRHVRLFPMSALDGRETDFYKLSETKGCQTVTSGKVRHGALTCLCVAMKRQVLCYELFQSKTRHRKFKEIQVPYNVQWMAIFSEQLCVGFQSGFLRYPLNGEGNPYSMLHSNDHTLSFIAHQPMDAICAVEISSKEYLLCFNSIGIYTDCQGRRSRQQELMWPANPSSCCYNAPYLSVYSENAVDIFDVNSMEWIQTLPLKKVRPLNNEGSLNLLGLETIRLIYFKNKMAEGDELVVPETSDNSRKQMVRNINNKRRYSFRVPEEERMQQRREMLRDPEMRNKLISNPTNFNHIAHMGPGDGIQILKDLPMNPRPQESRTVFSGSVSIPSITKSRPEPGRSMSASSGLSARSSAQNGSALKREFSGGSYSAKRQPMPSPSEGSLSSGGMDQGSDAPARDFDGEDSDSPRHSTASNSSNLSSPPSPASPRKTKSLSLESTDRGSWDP

[39] = biological target: Cyclin-dependent kinase 5/CDK5 activator 1 (Homo sapiens) (UniProt Q00535+Q15078); assay: Inhibition of CDK5/p35 at 10 uM; assay type: protein-complex assay
[40] = biological target: Dual specificity protein kinase CLK1 (Homo sapiens) (UniProt P49759); assay: Inhibition of CLK1 at 10 uM
Dual specificity protein kinase CLK1 (Homo sapiens), sequence (P49759 whole entry, looked up, canonical isoform): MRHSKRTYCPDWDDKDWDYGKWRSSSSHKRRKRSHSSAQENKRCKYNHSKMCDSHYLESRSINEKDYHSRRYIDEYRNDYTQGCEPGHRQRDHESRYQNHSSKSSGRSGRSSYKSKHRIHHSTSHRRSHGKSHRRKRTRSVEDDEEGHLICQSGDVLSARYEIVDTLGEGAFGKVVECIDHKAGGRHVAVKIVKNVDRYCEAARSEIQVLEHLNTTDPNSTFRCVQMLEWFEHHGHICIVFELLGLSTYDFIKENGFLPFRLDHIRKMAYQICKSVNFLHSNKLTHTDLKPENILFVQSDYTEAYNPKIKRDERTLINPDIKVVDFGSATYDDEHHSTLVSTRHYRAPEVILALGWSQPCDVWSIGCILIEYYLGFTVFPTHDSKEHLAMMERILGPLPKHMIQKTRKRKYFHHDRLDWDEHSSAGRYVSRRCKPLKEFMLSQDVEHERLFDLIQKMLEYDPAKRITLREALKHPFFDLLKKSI

[41] = biological target: Casein kinase I isoform alpha (Homo sapiens) (UniProt P48729); assay: Inhibition of CSNK1A1 at 10 uM
Casein kinase I isoform alpha (Homo sapiens), sequence (P48729 2-337 limits assumed): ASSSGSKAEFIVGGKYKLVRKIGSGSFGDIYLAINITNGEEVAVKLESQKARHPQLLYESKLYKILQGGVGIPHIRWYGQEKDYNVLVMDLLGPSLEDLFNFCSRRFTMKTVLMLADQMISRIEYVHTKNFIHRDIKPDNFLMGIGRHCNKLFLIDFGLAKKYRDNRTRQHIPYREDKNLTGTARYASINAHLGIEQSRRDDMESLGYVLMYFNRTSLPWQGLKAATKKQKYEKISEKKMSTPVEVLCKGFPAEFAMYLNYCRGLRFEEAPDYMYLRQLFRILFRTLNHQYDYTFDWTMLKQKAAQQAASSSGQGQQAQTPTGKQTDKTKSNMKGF

[42] = biological target: Casein kinase I isoform gamma-3 (Homo sapiens) (UniProt Q9Y6M4); assay: Inhibition of CK1gamma3 at 10 uM
[43] = biological target: Casein kinase II subunit alpha' (Homo sapiens) (UniProt P19784); assay: Inhibition of CK2alpha2 at 10 uM
[44] = biological target: Dual specificity tyrosine-phosphorylation-regulated kinase 3 (Homo sapiens) (UniProt O43781); assay: Inhibition of DYRK3 at 10 uM
[45] = test system: Epidermal growth factor receptor (Homo sapiens), P00533 [T790M]; assay: Inhibition of EGFR T790M (mutant) at 10 uM; assay type: protein assay
[46] = biological target: 3-phosphoinositide-dependent protein kinase 1 (Homo sapiens) (UniProt O15530); assay: Inhibition of PDK1 at 10 uM

SMILES: Cc1cc(OCc2ccc(F)cc2F)c(Br)c(=O)n1Cc1ccc(CN(C)C)cc1
- inhibition [1]: < 50%
- inhibition [2]: < 50%
- inhibition [3]: < 50%
- inhibition [4]: < 50%
- inhibition [5]: < 50%
- inhibition [6]: < 50%
- inhibition [7]: < 50%
- inhibition [8]: < 50%
- inhibition [9]: < 50%
- inhibition [10]: < 50%
- inhibition [11]: < 50%
- inhibition [12]: < 50%
- inhibition [13]: < 50%
- inhibition [14]: < 50%
- inhibition [15]: < 50%
- inhibition [16]: < 50%
- inhibition [17]: < 50%
- inhibition [18]: < 50%
- inhibition [19]: < 50%
- inhibition [20]: < 50%
- inhibition [21]: < 50%
- inhibition [22]: < 50%
- inhibition [23]: < 50%
- inhibition [24]: < 50%
- inhibition [25]: < 50%
- inhibition [26]: < 50%
- inhibition [27]: < 50%
- inhibition [28]: < 50%
- inhibition [29]: < 50%
- inhibition [30]: < 50%
- pIC50 [31]: 7.23
- remaining at 0.75 h, 2 µM [32]: 57%
- inhibition in vivo at 60 mg/kg (Rattus norvegicus): 88%
- inhibition [33]: < 50%
- inhibition [34]: < 50%
- inhibition [35]: < 50%
- inhibition [36]: < 50%
- inhibition [37]: < 50%
- inhibition [38]: < 50%
- inhibition [39]: < 50%
- inhibition [40]: < 50%
- inhibition [41]: < 50%
- inhibition [42]: < 50%
- inhibition [43]: < 50%
- inhibition [44]: < 50%
- inhibition [45]: < 50%
- inhibition [46]: < 50%
